Where two headings read alike, the source gives them in different places.

The source of these data is PMC4920026 (Scientific Reports, 2016).

For the test, the target named is huPrP(23–230) (Homo sapiens, UniProt P04156). In kind it is binding. As to conditions: for k2 (microscopic association constant of xenon to the open state): k1 = 0, pH 4.5.

Consider `[Xe]` [xenon], for which the “ΔG24 (free energy of xenon binding to the open state)” value (binding site A1, 293 K) was -19.7 ± 0.3 kJ/M; the “ΔG24 (free energy of xenon binding to the open state)” value (binding site A2, 293 K) was -14.91 ± 0.03 kJ/M; the “ΔG24 (free energy of xenon binding to the open state)” value (binding site B, 293 K) is -20.5 ± 0.2 kJ/M; the “ΔG24 (free energy of xenon binding to the open state)” value (binding site C, 293 K) is -11.5 ± 0.7 kJ/M; the “ΔG24 (free energy of xenon binding to the open state)” value (binding site D, 293 K) is -14.24 ± 0.02 kJ/M. For the same compound, the Kd is, setting by setting: (binding site A1, Kapp = 1/k2 + k3/k2, 293 K, read-out: Kapp Xe (apparent xenon dissociation constant)) 12.5 mM; (binding site A2, Kapp = 1/k2 + k3/k2, 293 K, read-out: Kapp Xe (apparent xenon dissociation constant)) 14.6 mM; (binding site B, Kapp = 1/k2 + k3/k2, 293 K, read-out: Kapp Xe (apparent xenon dissociation constant)) 9.1 mM; (binding site C, Kapp = 1/k2 + k3/k2, 293 K, read-out: Kapp Xe (apparent xenon dissociation constant)) 11.4 mM; (binding site D, Kapp = 1/k2 + k3/k2, 293 K, read-out: Kapp Xe (apparent xenon dissociation constant)) 11.8 mM; (order of magnitude, over all cavities, read-out: apparent dissociation constants) ~10 mM. For the same compound, the “k2 (microscopic association constant of xenon to the open state)” value by setting is: (binding site A1, 293 K) 3.2 ± 0.4 mM⁻¹; (binding site A2, 293 K) 0.46 ± 0.01 mM⁻¹; (binding site B, 293 K, k3 set to 39) 4.5 ± 0.4 mM⁻¹; (binding site C, 293 K) 0.11 ± 0.03 mM⁻¹; (binding site D, 293 K) 0.34 ± 0.02 mM⁻¹. Further, where the note is “order of magnitude, over all cavities”, the “apparent xenon affinities k2/(1 + k3)” value was ~0.1 mM⁻¹.
